In patent US20240165120A1, “TREATING CANCER IN PATIENT HAVING CO-OCCURRING GENETIC ALTERATION IN FGFR2 AND A CANCER DRIVER GENE” (TAIHO PHARMACEUTICAL CO., LTD., priority 2021, published 2024) one finds overall survival, stability and oral absorbability data, which are given here for two molecules.

The test system of data set [1] is advanced iCCA. To be noted: 1st line; patients with advanced iCCA; cited from earlier work.
Data set [2] can be described thus: Crystal form stability. As to conditions: crystal forms defined by XRPD peaks.
Data set [3] can be described thus: Crystal form oral absorbability. To be noted: crystal forms defined by XRPD peaks.

Gemcitabine-cisplatin: the overall survival in data set [1] is recorded as 1 year. Take `C=CC(=O)N1CC[C@H](n2nc(C#Cc3cc(OC)cc(OC)c3)c3c(N)ncnc32)C1` [Compound (1), (S)-1-[(3)-[4-amino-3-[(3,5-dimethoxyphenyl)ethynyl]-1H-pyrazolo[3,4-d]pyrimidin-1-yl]-1-pyrrolidinyl]-2-propen-1-one]: the stability entry in data set [2] was “good stability”. Further, the oral absorbability entry in data set [3] is recorded as “excellent oral absorbability”.
